Experimental data: PubChem BioAssay (NCI)
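Growth conditions: 96-well plates. Treatment: test compound, 48 hours, 5 concentrations. Analysis: linear interpolation between bracketing concentrations; unreached endpoints set to highest concentration. GI50 = concentration required for 50% inhibition of growth. TGI marks complete inhibition of growth.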

How the values were obtained:
Test in all cases: NCI tumour cell line growth inhibition, 48 h
RPMI-8226 leukemia = test system: RPMI-8226 leukemia
SW-620 colon = test system: SW-620 colon
SNB-19 CNS = test system: SNB-19 CNS
SF-268 CNS = test system: SF-268 CNS
PC-3 prostate = test system: PC-3 prostate
ACHN renal = test system: ACHN renal
HOP-62 NSCLC = test system: HOP-62 NSCLC
UACC-62 melanoma = test system: UACC-62 melanoma
NCI-H226 lung = test system: NCI-H226 lung
MOLT-4 leukemia = test system: MOLT-4 leukemia
OVCAR-4 ovarian = test system: OVCAR-4 ovarian
IGROV1 ovarian = test system: IGROV1 ovarian
A549 NSCLC = test system: A549 NSCLC
MDA-MB-231 breast = test system: MDA-MB-231 breast
SR leukemia = test system: SR leukemia
OVCAR-5 ovarian = test system: OVCAR-5 ovarian
SK-MEL-28 melanoma = test system: SK-MEL-28 melanoma
COLO 205 colon = test system: COLO 205 colon
RXF 393 renal = test system: RXF 393 renal
T-47D breast = test system: T-47D breast
HS 578T breast = test system: HS 578T breast
DU-145 prostate = test system: DU-145 prostate
EKVX NSCLC = test system: EKVX NSCLC
786-0 renal = test system: 786-0 renal
HCT-15 colon = test system: HCT-15 colon
NCI/ADR-RES ovarian = test system: NCI/ADR-RES ovarian
SNB-75 CNS = test system: SNB-75 CNS
HCC-2998 colon = test system: HCC-2998 colon
MALME-3M melanoma = test system: MALME-3M melanoma
MCF7 breast = test system: MCF7 breast
SF-539 CNS = test system: SF-539 CNS
UO-31 renal = test system: UO-31 renal
UACC-257 melanoma = test system: UACC-257 melanoma
NCI-H460 lung = test system: NCI-H460 lung
TK-10 renal = test system: TK-10 renal
HL-60(TB) leukemia = test system: HL-60(TB) leukemia
HCT-116 colon = test system: HCT-116 colon
SK-MEL-5 melanoma = test system: SK-MEL-5 melanoma
SK-OV-3 ovarian = test system: SK-OV-3 ovarian
SF-295 CNS = test system: SF-295 CNS
LOX IMVI melanoma = test system: LOX IMVI melanoma
OVCAR-8 ovarian = test system: OVCAR-8 ovarian
M14 melanoma = test system: M14 melanoma
HT29 colon = test system: HT29 colon
SN12C renal = test system: SN12C renal
NCI-H23 lung = test system: NCI-H23 lung
OVCAR-3 ovarian = test system: OVCAR-3 ovarian
CAKI-1 renal = test system: CAKI-1 renal
MDA-MB-468 breast = test system: MDA-MB-468 breast
BT-549 breast = test system: BT-549 breast
KM12 colon = test system: KM12 colon
SK-MEL-2 melanoma = test system: SK-MEL-2 melanoma
U251 CNS = test system: U251 CNS
MDA-MB-435 = test system: MDA-MB-435
HOP-92 NSCLC = test system: HOP-92 NSCLC
NCI-H522 lung = test system: NCI-H522 lung
CCRF-CEM leukemia = test system: CCRF-CEM leukemia
K-562 leukemia = test system: K-562 leukemia
A498 renal = test system: A498 renal

## COc1ccc(C(=O)COc2ccc(NC(=O)Nc3ccc(Cl)c(C(F)(F)F)c3)cc2)cc1
RPMI-8226 leukemia
  GI50: 3.45 µM
  TGI: > 100 µM
SW-620 colon
  GI50: 5.3 µM
  TGI: > 100 µM
SNB-19 CNS
  GI50: 3.86 µM
  TGI: 22.7 µM
SF-268 CNS
  GI50: 4.04 µM
  TGI: > 100 µM
PC-3 prostate
  GI50: 3.08 µM
  TGI: > 100 µM
ACHN renal
  GI50: 3.35 µM
  TGI: > 100 µM
HOP-62 NSCLC
  GI50: 6.69 µM
  TGI: 96.4 µM
UACC-62 melanoma
  GI50: 2.79 µM
  TGI: 9.38 µM
NCI-H226 lung
  GI50: 3.61 µM
  TGI: 21 µM
MOLT-4 leukemia
  GI50: 2.84 µM
  TGI: > 100 µM
OVCAR-4 ovarian
  GI50: 2.87 µM
  TGI: 17.9 µM
IGROV1 ovarian
  GI50: 6 µM
  TGI: > 100 µM
A549 NSCLC
  GI50: 3.2 µM
  TGI: > 100 µM
MDA-MB-231 breast
  GI50: 3.81 µM
  TGI: 26.1 µM
SR leukemia
  GI50: 3.13 µM
  TGI: > 100 µM
OVCAR-5 ovarian
  GI50: 5.24 µM
  TGI: > 100 µM
SK-MEL-28 melanoma
  GI50: 3.39 µM
  TGI: 33.9 µM
COLO 205 colon
  GI50: 3.08 µM
  TGI: > 100 µM
RXF 393 renal
  GI50: 4.29 µM
  TGI: 15.3 µM
T-47D breast
  GI50: 3.06 µM
  TGI: 92.3 µM
HS 578T breast
  GI50: 2.89 µM
  TGI: 9.97 µM
DU-145 prostate
  GI50: 5.78 µM
  TGI: > 100 µM
EKVX NSCLC
  GI50: 3.15 µM
  TGI: 16.6 µM
786-0 renal
  GI50: 4.57 µM
  TGI: 24.5 µM
HCT-15 colon
  GI50: 3.09 µM
  TGI: > 100 µM
NCI/ADR-RES ovarian
  GI50: 3.69 µM
  TGI: > 100 µM
SNB-75 CNS
  GI50: 1.67 µM
  TGI: 14.3 µM
HCC-2998 colon
  GI50: 3.8 µM
  TGI: 34.2 µM
MALME-3M melanoma
  GI50: 2.84 µM
  TGI: 18.2 µM
MCF7 breast
  GI50: 2.6 µM
  TGI: > 100 µM
SF-539 CNS
  GI50: 4.12 µM
  TGI: 26.4 µM
UO-31 renal
  GI50: 3.75 µM
  TGI: > 100 µM
UACC-257 melanoma
  GI50: 2.95 µM
  TGI: > 100 µM
NCI-H460 lung
  GI50: 3.34 µM
  TGI: > 100 µM
TK-10 renal
  GI50: 7.9 µM
  TGI: > 100 µM
HL-60(TB) leukemia
  GI50: 3.09 µM
  TGI: 22.7 µM
HCT-116 colon
  GI50: 3.87 µM
  TGI: > 100 µM
SK-MEL-5 melanoma
  GI50: 3.14 µM
  TGI: 19.7 µM
SK-OV-3 ovarian
  GI50: 8.07 µM
  TGI: > 100 µM
SF-295 CNS
  GI50: 3.35 µM
  TGI: 25.9 µM
LOX IMVI melanoma
  GI50: 3.2 µM
  TGI: > 100 µM
OVCAR-8 ovarian
  GI50: 4.21 µM
  TGI: > 100 µM
M14 melanoma
  GI50: 2.72 µM
  TGI: > 100 µM
HT29 colon
  GI50: 4.49 µM
  TGI: > 100 µM
SN12C renal
  GI50: 4.8 µM
  TGI: > 100 µM
NCI-H23 lung
  GI50: 4.52 µM
  TGI: > 100 µM
OVCAR-3 ovarian
  GI50: 3.3 µM
  TGI: > 100 µM
CAKI-1 renal
  GI50: 4.36 µM
  TGI: > 100 µM
MDA-MB-468 breast
  GI50: 2.8 µM
  TGI: 8.67 µM
BT-549 breast
  GI50: 4.38 µM
  TGI: 40.8 µM
KM12 colon
  GI50: 2.88 µM
  TGI: 8.71 µM
SK-MEL-2 melanoma
  GI50: 2.86 µM
  TGI: 34.4 µM
U251 CNS
  GI50: 3.71 µM
  TGI: 26.1 µM
MDA-MB-435
  GI50: 3.63 µM
  TGI: > 100 µM
HOP-92 NSCLC
  GI50: 3.08 µM
  TGI: 10 µM
NCI-H522 lung
  GI50: 2.96 µM
  TGI: > 100 µM
CCRF-CEM leukemia
  GI50: 3.71 µM
  TGI: > 100 µM
K-562 leukemia
  GI50: 4.92 µM
  TGI: > 100 µM
A498 renal
  GI50: 2.74 µM
  TGI: 9.86 µM
